Assay results as given in patent US20230120597A1, “CO-AGONISTS AT GLP-1 AND GIP RECEPTORS SUITABLE FOR ORAL DELIVERY” (Novo Nordisk A/S, priority 2020, published 2023).
Like-named read-outs stand apart in the source and are kept apart here. Starred links: 1 amine or outer side, 2 acyl side, 3 side chain; linkers in the order of their positions; H or OH if unused. Non-standard residues stand in square brackets, D forms with d. Residues, ends and D or L forms follow the SMILES beside them. Groups on a side chain read outwards from the residue. *: point of attachment. C18 diacid = O=C(O)CCCCCCCCCCCCCCCCC(=O)*; γGlu = O=C(O)[C@H](CCC(=O)[*:2])N[*:1]; εLys = N[C@@H](CCCCN[*:1])C(=O)[*:2]; Aib = CC(C)(N)C(=O)O

What was measured:
human GIP receptor = molecular target: T1, human GIP receptor (Homo sapiens, UniProt P48546); assay: In vitro functional potency, CRE luciferase reporter gene assay, whole BHK cells expressing hGIPR; assay type: cell-based; conditions: BHK CRE luc2P hGIPR cells
T1 construct: expressed in transfected cells; host or cells: BHK (parent line BHKTS13), clone BHK CRE luc2P hGIPR
T1 sequence (P48546 22-466): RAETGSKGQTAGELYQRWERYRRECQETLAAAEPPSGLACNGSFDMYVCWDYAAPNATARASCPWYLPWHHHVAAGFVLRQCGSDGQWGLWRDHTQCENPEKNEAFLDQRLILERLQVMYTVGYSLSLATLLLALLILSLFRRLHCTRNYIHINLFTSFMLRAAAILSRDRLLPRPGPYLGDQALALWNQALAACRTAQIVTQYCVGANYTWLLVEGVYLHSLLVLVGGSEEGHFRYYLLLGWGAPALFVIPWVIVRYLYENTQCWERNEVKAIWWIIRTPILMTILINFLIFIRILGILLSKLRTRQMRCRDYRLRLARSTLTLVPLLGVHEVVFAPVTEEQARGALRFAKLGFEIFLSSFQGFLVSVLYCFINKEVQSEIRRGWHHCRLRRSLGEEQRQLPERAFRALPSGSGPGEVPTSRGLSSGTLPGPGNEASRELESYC

human GLP-1 receptor = molecular target: T2, human GLP-1 receptor (Homo sapiens, UniProt P43220); assay: In vitro functional potency, CRE luciferase reporter gene assay, whole BHK cells expressing hGLP-1R; assay type: cell-based; conditions: BHK CRE luc2P hGLP-1R cells
T2 construct: expressed in transfected cells; host or cells: BHK (parent line BHKTS13), clone BHK CRE luc2P hGLP-1R

[1] = Pharmacokinetic study in dogs, oral dosing of tablet compositions with SNAC; assay type: in vivo, Beagle dogs; conditions: for Tmax / half-life: male
Procedure, shortened: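 Male beagle dogs (9-17 kg), fasted, received a single oral tablet with 100-300 mg SNAC and 3-4 mg test substance, groups of 6-8.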

[2] = in vivo; cited from earlier work
[3] = hGIPR, CRE Luc 1% HSA EC50, 1% HSA
[4] = hGLP-1R, CRE Luc 1% HSA EC50, 1% HSA

T2 sequence (P43220 24-463): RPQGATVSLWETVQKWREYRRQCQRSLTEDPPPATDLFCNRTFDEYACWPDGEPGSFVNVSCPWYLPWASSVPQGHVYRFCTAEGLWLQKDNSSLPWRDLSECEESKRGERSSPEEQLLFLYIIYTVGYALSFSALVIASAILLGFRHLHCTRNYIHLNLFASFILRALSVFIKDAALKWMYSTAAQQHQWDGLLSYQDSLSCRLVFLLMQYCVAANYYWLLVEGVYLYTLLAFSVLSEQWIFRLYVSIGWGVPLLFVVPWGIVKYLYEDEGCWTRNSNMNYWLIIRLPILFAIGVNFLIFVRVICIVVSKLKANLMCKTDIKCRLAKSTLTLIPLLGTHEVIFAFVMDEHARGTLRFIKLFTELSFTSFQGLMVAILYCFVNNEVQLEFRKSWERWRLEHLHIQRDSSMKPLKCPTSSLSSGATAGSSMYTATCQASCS

Row | Compound | EC50 (human GIP receptor; 0% HSA, read-out: hGIPR, CRE Luc 0% HSA EC50) [nM] | EC50 (human GIP receptor; [3]) [nM] | EC50 (human GLP-1 receptor; 0% HSA, read-out: hGLP-1R, CRE Luc 0% HSA EC50) [nM] | EC50 (human GLP-1 receptor; [4]) [nM] | AUC/Dose ([1]; dog, in vivo, po) [kg·h/L] | Tmax ([1]; beagle, dog, in vivo, po, Tmax) [h] | half-life ([1]; beagle, dog, in vivo, po, t1/2) [h] | EC50 (human GIP receptor; hGIPR, CRE Luc 0% HSA EC50, 0% HSA) [nM] | EC50 (human GLP-1 receptor; hGLP-1R, CRE Luc 0% HSA EC50, 0% HSA) [nM] | half-life ([1]; dog, in vivo, oral tablet, SNAC 100 mg, test substance 3 mg, Beagle dogs, harmonic mean, read-out: t1/2 (converted)) [h] | Tmax ([1]; dog, in vivo, oral tablet, SNAC 100 mg, test substance 3 mg, Beagle dogs, median, read-out: Tmax) [h] | AUC/Dose ([1]; oral tablet, SNAC 100 mg, test substance 3 mg, Beagle dogs, arithmetic mean) [kg·h/L] | half-life measured in man [2] [min]
1 | CC[C@H](C)[C@H](NC(=O)[C@H](Cc1ccccc1)NC(=O)[C@H](CCC(=O)O)NC(=O)[C@H](CCCNC(=N)N)NC(=O)[C@H](C)NC(=O)[C@H](C)NC(=O)[C@H](CCC(N)=O)NC(=O)[C@H](CCCCNC(=O)[C@@H](N)CCCCNC(=O)[C@@H](N)CCCCNC(=O)CC[C@H](NC(=O)CCCCCCCCCCCCCCCCC(=O)O)C(=O)O)NC(=O)[C@H](CCC(=O)O)NC(=O)[C@H](CC(C)C)NC(=O)[C@H](Cc1ccc(O)cc1)NC(=O)[C@@H](NC(=O)[C@H](CO)NC(=O)[C@H](Cc1ccc(O)cc1)NC(=O)[C@H](CC(=O)O)NC(=O)[C@H](CO)NC(=O)[C@@H](NC(=O)[C@H](Cc1ccccc1)NC(=O)[C@@H](NC(=O)CNC(=O)[C@H](CCC(=O)O)NC(=O)C(C)(C)NC(=O)[C@@H](N)Cc1ccc(O)cc1)[C@@H](C)O)[C@@H](C)O)[C@@H](C)CC)C(=O)N[C@@H](CC(N)=O)C(=O)N[C@@H](Cc1c[nH]c2ccccc12)C(=O)N[C@@H](CC(C)C)C(=O)N[C@@H](CC(C)C)C(=O)N[C@@H](C)C(=O)NCC(=O)NCC(=O)N1CCC[C@H]1C(=O)N[C@@H](CO)C(=O)N[C@@H](CO)C(=O)NCC(=O)N[C@@H](C)C(=O)N1CCC[C@H]1C(=O)N1CCC[C@H]1C(=O)N1CCC[C@H]1C(=O)N[C@@H](CO)C(=O)O [Compound No. 11] (H-Y[Aib]EGTFTSDYSIYLEK([εLys-εLys-γGlu-C18 diacid])QAAREFINWLLAGGPSSGAPPPS-OH; N-terminus assumed) | 0.0099 | 0.45 | 0.0033 | 0.132 | 7.1 | 1.4 | 34 |  |  |  |  |  | 
2 | CC[C@H](C)[C@H](NC(=O)[C@H](Cc1ccccc1)NC(=O)[C@H](CCC(=O)O)NC(=O)[C@H](CCCNC(=N)N)NC(=O)[C@H](C)NC(=O)[C@H](C)NC(=O)[C@H](CCC(N)=O)NC(=O)[C@H](CCCCNC(=O)[C@@H](N)CCCCNC(=O)[C@@H](N)CCCCNC(=O)CC[C@H](NC(=O)CCCCCCCCCCCCCCCCC(=O)O)C(=O)O)NC(=O)[C@H](CCC(=O)O)NC(=O)[C@H](CC(C)C)NC(=O)[C@H](Cc1ccc(O)cc1)NC(=O)[C@@H](NC(=O)[C@H](CO)NC(=O)[C@H](Cc1ccc(O)cc1)NC(=O)[C@H](CC(=O)O)NC(=O)[C@H](CO)NC(=O)[C@@H](NC(=O)[C@H](Cc1ccccc1)NC(=O)[C@@H](NC(=O)CNC(=O)[C@H](CCC(=O)O)NC(=O)C(C)(C)NC(=O)[C@@H](N)Cc1ccc(O)cc1)[C@@H](C)O)[C@@H](C)O)[C@@H](C)CC)C(=O)N[C@@H](CCC(=O)O)C(=O)N[C@@H](Cc1c[nH]c2ccccc12)C(=O)N[C@@H](CC(C)C)C(=O)N[C@@H](CC(C)C)C(=O)N[C@@H](CCCNC(=N)N)C(=O)NCC(=O)NCC(=O)N1CCC[C@H]1C(=O)N[C@@H](CCC(=O)O)C(=O)N[C@@H](CO)C(=O)NCC(=O)N[C@@H](C)C(=O)N1CCC[C@H]1C(=O)N1CCC[C@H]1C(=O)N1CCC[C@H]1C(=O)N[C@@H](CO)C(=O)O [Compound No. 13] (H-Y[Aib]EGTFTSDYSIYLEK([εLys-εLys-γGlu-C18 diacid])QAAREFIEWLLRGGPESGAPPPS-OH) |  | 0.257 |  | 0.204 |  |  |  | 0.0139 | 0.0074 | 60 | 1.5 | 14.8 | 
3 | hGLP-1: human glucagon-like peptide 1, native hormone whose half-life in man is cited from Meier et al. |  |  |  |  |  |  |  |  |  |  |  |  | 2 to 4
